{"source": "patent EP4506005A1", "about": "“JAK-INHIBITOR FOR THE TREATMENT OF TEN, SJS AND SJS/TEN OVERLAP” (Max-Planck-Gesellschaft zur Förderung der Wissenschaften …, priority 2023, dated 2025)", "key": {"[1]": {"conditions": "cited from earlier work"}, "DRESS": {"test_system": "DRESS", "conditions": "earlier report; cited from earlier work"}, "mouse model of TEN": {"test_system": "mouse model of TEN", "experiment": "Smac mimetic TEN mouse model"}, "primary keratinocytes": {"test_system": "primary keratinocytes", "experiment": "Live-cell imaging co-culture assay of patient-derived keratinocytes with matched PBMCs", "text": "Concurrently, patient-matched PBMCs were isolated and activated using CD3/28. After five days, the keratinocytes were fluorescently labeled and co-cultured with activated or resting PBMCs. A fluorescent DNA-binding dye was introduced to identify cells with compromised membrane integrity, in order to visualize, track and quantify the cytotoxic action of activated PBMCs towards keratinocytes using live-cell imaging.\nPBMCs were isolated using Ficol according to standard protocol. Cells were frozen in liquid nitrogen until further usage.\nPatient PBMCs (200'000 / well / 200 µl) were stimulated in U-shape 96-well plates in the presence or absence of CD3/28 (Gibco Dynabeads, #11161D) at a ratio of 1:1, in X-VIVO 15 (Lonza, #881026) for 5 days at 37 °C / 5% CO2. On day 4 of PBMC stimulation, hair-follicle derived keratinocytes from the same patient were plated on Collagen-I coated 96-well plates at a density of 5'000 - 10000 / well (depending on the proliferation rate, patient specific). On day 5 of PBMC stimulation, keratinocytes were fluorescently labeled (Celltracker Red; Invitrogen #C34552) according to the manufacturer's recommendation. Activated or non-activated (\"resting\") PBMCs were then added to the keratinocytes at a ratio of 1:1, after magnetic removal of CD3/28 beads where necessary. Tofacitinib (CST, #14703) or control (DMSO) was added in the indicated concentration as well as Celltox Green (Promega, G8731, 1:8000 final dilution) to reach a final volume of 200 µl per well. Every 2 hours images were acquired using a live cell analysis system (Incucyte Sx3, Sartorius) for 72 hours at 37 °C / 5% CO2. Quantification of dead keratinocytes (Celltox Green+ / Celltracker Red+) was performed using the proprietary analysis software (Incucyte, Sartorius)."}}, "note": "“Also recorded” adds a separate entry of the source."}
{"compound": "C[C@@H]1CCN(C(=O)CC#N)C[C@@H]1N(C)c1ncnc2[nH]ccc12", "note": "[Tofacitinib]", "values": [{"measurement": "peak plasma concentrations achieved (time after administration)", "setting": "[1]", "value": "30 to 60", "unit": "min"}, {"measurement": "therapeutic intervention in DRESS", "setting": "DRESS", "value": "successful"}, {"measurement": "clinical and histological disease severity", "setting": "mouse model of TEN; oral administration", "value": "ameliorated clinical and histological disease severity"}, {"measurement": "macroscopic disease severity (clinical assessment score: Nikolsky sign, edema, rubor)", "setting": "mouse model of TEN; oral gavage twice daily, Tofacitinib 30 mg/kg or Baricitinib 10 mg/kg, day 1 and 3 after s.c. smac mimetic injection", "value": "markedly reduced macroscopic disease severity"}, {"measurement": "cell death", "setting": "primary keratinocytes; Tofacitinib in combination with resting (non-activated) PBMCs", "value": "no indications of increased cell death"}, {"measurement": "keratinocyte cytotoxicity", "setting": "primary keratinocytes; co-culture of primary keratinocytes with CD3/28 activated PBMCs from the same TEN patient, ratio 1:1, Tofacitinib 50 or 5 (nmol/nM), imaging every 2h for 72 hours, Celltox Green positive keratinocytes", "value": "reduced keratinocyte-directed cytotoxicity; also recorded: able to dampen the keratinocyte mediated cytotoxicity; also recorded: ameliorates T-cell mediated keratinocyte cytotoxicity; also recorded: dose-dependent inhibition of keratinocyte cytotoxicity"}, {"measurement": "keratinocyte cell death", "setting": "primary keratinocytes; keratinocytes exposed to Tofacitinib alone", "value": "did not induce keratinocyte cell death"}]}
